Measurements: PubChem BioAssay AID248 (DTP/NCI, 2004)
“And” between values parts separate entries of the source, which are not always exact repeats. Equal entries are not always repeated. Toxic doses and inconclusive results are not listed. Cut-off read from the data, not from the text of the source: active = T/C of 150% or more; inactive = T/C below 125%.

Tested on: L1210 leukemia ip in BDF1 mice, survival T/C
Assay: NCI In Vivo Anticancer Drug Screen. Data for tumor model L1210 Leukemia (intraperitoneal) in B6D2F1 (BDF1) mice
Conditions: endpoint: mean survival time, higher = longer survival
In short: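 Tumor was transplanted into mice, which were then dosed with test compound or vehicle alone. Survival was recorded for each group, and the treated figure was expressed relative to the control figure.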

[1] = dose: 100.0 mg/kg/injection, schedule: Q01DX001 (ip), vehicle: carboxymethylcellulose (CMC)
[2] = dose: 200.0 mg/kg/injection, schedule: Q01DX001 (ip), vehicle: carboxymethylcellulose (CMC)
[3] = dose: 400.0 mg/kg/injection, schedule: Q01DX001 (ip), vehicle: carboxymethylcellulose (CMC)
[4] = dose: 100.0 mg/kg/injection, schedule: Q01DX009 (ip), vehicle: saline with Tween-80
[5] = dose: 200.0 mg/kg/injection, schedule: Q01DX009 (ip), vehicle: saline with Tween-80
[6] = dose: 400.0 mg/kg/injection, schedule: Q01DX009 (ip), vehicle: saline with Tween-80
[7] = dose: 100.0 mg/kg/injection, schedule: Q04DX003 (ip), vehicle: Klucel (hydroxypropylcellulose) (HPC)
[8] = dose: 200.0 mg/kg/injection, schedule: Q04DX003 (ip), vehicle: Klucel (hydroxypropylcellulose) (HPC)
[9] = dose: 400.0 mg/kg/injection, schedule: Q04DX003 (ip), vehicle: Klucel (hydroxypropylcellulose) (HPC)
[10] = dose: 100.0 mg/kg/injection, schedule: Q01DX001 (ip), vehicle: other
[11] = dose: 200.0 mg/kg/injection, schedule: Q01DX001 (ip), vehicle: other
[12] = dose: 400.0 mg/kg/injection, schedule: Q01DX001 (ip), vehicle: other
[13] = dose: 100.0 mg/kg/injection, schedule: Q04DX002 (ip), vehicle: Klucel (hydroxypropylcellulose) (HPC)
[14] = dose: 200.0 mg/kg/injection, schedule: Q04DX002 (ip), vehicle: Klucel (hydroxypropylcellulose) (HPC)
[15] = dose: 100.0 mg/kg/injection, schedule: Q01DX005 (ip), vehicle: saline
[16] = dose: 200.0 mg/kg/injection, schedule: Q01DX005 (ip), vehicle: saline
[17] = dose: 100.0 mg/kg/injection, schedule: Q01DX009 (ip), vehicle: Klucel (hydroxypropylcellulose) (HPC)
[18] = dose: 200.0 mg/kg/injection, schedule: Q01DX009 (ip), vehicle: Klucel (hydroxypropylcellulose) (HPC)
[19] = dose: 100.0 mg/kg/injection, schedule: Q01DX001 (ip), vehicle: saline with Tween-80
[20] = dose: 50.0 mg/kg/injection, schedule: Q01DX001 (ip), vehicle: saline
[21] = dose: 100.0 mg/kg/injection, schedule: Q01DX001 (ip), vehicle: saline
[22] = dose: 200.0 mg/kg/injection, schedule: Q01DX001 (ip), vehicle: saline
[23] = dose: 400.0 mg/kg/injection, schedule: Q01DX001 (ip), vehicle: saline

Measured: T/C

CC1OC(n2ccc(NC(=O)c3ccc(NC(=O)C(C)(N)CO)cc3)nc2=O)CCC1OC1OC(C)C(N(C)C)C(O)C1O (stereo unspecified)
inactive: [1] 106 % of control | [2] 100 % of control | [3] 106 % of control

O=C(CCCl)NC1CC1c1ccccc1 (stereo unspecified)
inactive: [4] 90 % of control | dose: 100.0 mg/kg/injection, schedule: Q04DX003 (ip), vehicle: saline with Tween-80 97 % of control | [5] 95 % of control | dose: 200.0 mg/kg/injection, schedule: Q04DX003 (ip), vehicle: saline with Tween-80 97 % of control | [6] 94 % of control | dose: 400.0 mg/kg/injection, schedule: Q04DX003 (ip), vehicle: saline with Tween-80 95 % of control

O=C1NC(=S)S/C1=C\c1c(Cl)cccc1Cl
inactive: dose: 75.0 mg/kg/injection, schedule: Q01DX001 (ip), vehicle: other 97 % of control

CC(CNc1ccc(Cl)cc1)(CNc1ccc(Cl)cc1)[N+](=O)[O-]
inactive: dose: 100.0 mg/kg/injection, schedule: Q04DX003 (ip), vehicle: saline 92 % of control | dose: 200.0 mg/kg/injection, schedule: Q04DX003 (ip), vehicle: saline 88 % of control | dose: 400.0 mg/kg/injection, schedule: Q04DX003 (ip), vehicle: saline 92 % of control

C/C(CCCCCCCCC#N)=N/Nc1ccc([N+](=O)[O-])cc1[N+](=O)[O-]
inactive: [7] 93 % of control | [8] 93 % of control | [9] 98 % of control

OC1C(O)C(O)C2(CO2)C(O)C1O (stereo unspecified)
inactive: dose: 600.0 mg/kg/injection, schedule: Q01DX Z (ip), vehicle: saline 112 % of control

O=C(C[n+]1ccccc1)N/N=C/c1cccc([N+](=O)[O-])c1
inactive: dose: 50.0 mg/kg/injection, schedule: Q01DX009 (ip), vehicle: saline with Tween-80 91 % of control

COc1cccc(NC(=S)C(C#N)C(=O)Nc2cccc(C(F)(F)F)c2)c1 (stereo unspecified)
inactive: dose: 25.0 mg/kg/injection, schedule: Q04DX002 (ip), vehicle: gum acacia 106 % of control | dose: 50.0 mg/kg/injection, schedule: Q04DX002 (ip), vehicle: gum acacia 109 % of control | dose: 100.0 mg/kg/injection, schedule: Q04DX002 (ip), vehicle: gum acacia 98 % of control and 88 % of control

CC(C(O)c1cc(=O)n(C)c2ccccc12)[N+](=O)[O-] (stereo unspecified)
inactive: [10] 95 % of control | [11] 110 % of control | [12] 101 % of control

O=C(O)CCc1nn(-c2ccccc2)c(=O)c2ccccc12
inactive: [13] 106 % of control | [14] 95 % of control

CCc1ccc([N+](=O)[O-])cc1
inactive: [1] 95 % of control | [2] 103 % of control | [3] 97 % of control

O=c1[nH]nnc2ncn(C3OC(CO)C(O)C3O)c12 (stereo unspecified)
inactive: [15] 91 % of control | [16] 87 % of control

O=C(Nc1cccc2ccccc12)Oc1ccc(Cl)cc1Cc1ccccc1
inactive: dose: 12.5 mg/kg/injection, schedule: Q04DX002 (ip), vehicle: Klucel (hydroxypropylcellulose) (HPC) 123 % of control | dose: 25.0 mg/kg/injection, schedule: Q04DX002 (ip), vehicle: Klucel (hydroxypropylcellulose) (HPC) 105 % of control | dose: 50.0 mg/kg/injection, schedule: Q04DX002 (ip), vehicle: Klucel (hydroxypropylcellulose) (HPC) 94 % of control | [13] 92 % of control | [14] 89 % of control

O=c1cc(I)[nH]c(=O)[nH]1
inactive: dose: 73.0 mg/kg/injection, schedule: Q01DX Z (ip), vehicle: methylcellulose (MC) 100 % of control | dose: 111.0 mg/kg/injection, schedule: Q01DX Z (ip), vehicle: methylcellulose (MC) 96 % of control | dose: 165.0 mg/kg/injection, schedule: Q01DX Z (ip), vehicle: methylcellulose (MC) 102 % of control | dose: 248.0 mg/kg/injection, schedule: Q01DX Z (ip), vehicle: methylcellulose (MC) 110 % of control

Cc1ccc2c(ccc3ccc4ccccc4c32)c1
inactive: [7] 90 % of control | [8] 89 % of control | [9] 93 % of control

Cc1c2c(cc3c1[nH]c1ccccc13)C(c1ccc(Cl)cc1)=NCC2
inactive: [4] 87 % of control | [5] 87 % of control | [6] 88 % of control

CCC(CC)=NNS(=O)(=O)c1ccccc1
inactive: dose: 75.0 mg/kg/injection, schedule: Q01DX001 (ip), vehicle: saline 100 % of control | dose: 150.0 mg/kg/injection, schedule: Q01DX001 (ip), vehicle: saline 100 % of control | dose: 300.0 mg/kg/injection, schedule: Q01DX001 (ip), vehicle: saline 102 % of control

CCCOc1ccc(-c2nc(-c3ccc(N=Cc4ccc(N(CCOS(C)(=O)=O)CCOS(C)(=O)=O)cc4Cl)cc3)cs2)cc1
inactive: dose: 50.0 mg/kg/injection, schedule: Q01DX009 (ip), vehicle: Klucel (hydroxypropylcellulose) (HPC) 107 % of control | dose: 100.0 mg/kg/injection, schedule: Q01DX001 (ip), vehicle: Klucel (hydroxypropylcellulose) (HPC) 102 % of control | [17] 100 % of control | dose: 200.0 mg/kg/injection, schedule: Q01DX001 (ip), vehicle: Klucel (hydroxypropylcellulose) (HPC) 100 % of control | [18] 107 % of control | dose: 400.0 mg/kg/injection, schedule: Q01DX001 (ip), vehicle: Klucel (hydroxypropylcellulose) (HPC) 96 % of control

CC1(N(O)C(=O)NC2CCCCC2)CCCCC1
inactive: [19] 101 % of control | dose: 200.0 mg/kg/injection, schedule: Q01DX001 (ip), vehicle: saline with Tween-80 97 % of control

CC1(C)N=C(N)N=C(N)N1c1cccc(CCCCc2ccccc2)c1
inactive: dose: 5.0 mg/kg/injection, schedule: Q01DX001 (ip), vehicle: saline 86 % of control | dose: 10.0 mg/kg/injection, schedule: Q01DX001 (ip), vehicle: saline 92 % of control | dose: 20.0 mg/kg/injection, schedule: Q01DX001 (ip), vehicle: saline 103 % of control | dose: 25.0 mg/kg/injection, schedule: Q01DX001 (ip), vehicle: saline with Tween-80 97 % of control | dose: 40.0 mg/kg/injection, schedule: Q01DX001 (ip), vehicle: saline 92 % of control | dose: 50.0 mg/kg/injection, schedule: Q01DX001 (ip), vehicle: saline with Tween-80 104 % of control | [20] 112 % of control | [19] 106 % of control

O=C(O)c1nnn(Cc2ccccc2)n1
inactive: dose: 100.0 mg/kg/injection, schedule: Q04DX003 (ip), vehicle: acetone 94 % of control | dose: 200.0 mg/kg/injection, schedule: Q04DX003 (ip), vehicle: acetone 96 % of control | dose: 400.0 mg/kg/injection, schedule: Q04DX003 (ip), vehicle: acetone 96 % of control

CSc1ccc(NC(=S)NCCc2ccccc2)cc1
inactive: [17] 114 % of control | [18] 97 % of control | dose: 400.0 mg/kg/injection, schedule: Q01DX009 (ip), vehicle: Klucel (hydroxypropylcellulose) (HPC) 102 % of control

O=c1ccn(C2OC(CF)C(O)C2O)c(=O)[nH]1 (stereo unspecified)
inactive: [15] 104 % of control | [7] 106 % of control | [16] 104 % of control | [8] 110 % of control | [9] 101 % of control

COc1ccc(CN2CCCN(Cc3ccc(OC)cc3OC)C2c2cc(Br)ccc2O)c(OC)c1
inactive: [20] 97 % of control | [21] 90 % of control | [22] 92 % of control | [23] 92 % of control

CCN(CC)c1ccc(N=C2C=C(C(=O)Nc3ccccc3OC)C(=O)c3ccccc32)c(C)c1
inactive: [21] 102 % of control | [22] 105 % of control | [23] 96 % of control

CCCCCC#CC(O)(C(=O)OC)c1ccccc1 (stereo unspecified)
inactive: [10] 107 % of control | [11] 107 % of control | [12] 100 % of control
